Laboratory results published in ChEMBL document CHEMBL5727827, “PD-1/PD-L1 inhibitors” (2020).

Target: Programmed cell death protein 1/Programmed cell death 1 ligand 1 (Homo sapiens, UniProt Q15116+Q9NZQ7)
Assay: Binding of the protein pairs is measured using a bead based Amplified Luminescent Proximity Homogeneous Assay (ALPHA) platform. Binding of each protein pair results in proximity of the donor and acceptor beads which leads to an increase in ALPHA signal. […] Assays are performed in 25 mM Hepes (pH 7.4), 150 mM NaCl, 3.4 mM EDTA, 0.005% Tween 20, and 0.01% BSA. […] After an assay reaction time of 60 minutes at 25° C., binding was measured with addition of 20 μg/mL ALPHA assay acceptor beads (anti-His coated) and 20 µg/mL ALPHA assay donor beads (streptavidin coated). IC50 values were calculated from the fit of the dose-response curves to a four-parameter equation.
Assay type: protein-complex assay

Sequence of Programmed cell death protein 1/Programmed cell death 1 ligand 1 (Q15116 whole entry): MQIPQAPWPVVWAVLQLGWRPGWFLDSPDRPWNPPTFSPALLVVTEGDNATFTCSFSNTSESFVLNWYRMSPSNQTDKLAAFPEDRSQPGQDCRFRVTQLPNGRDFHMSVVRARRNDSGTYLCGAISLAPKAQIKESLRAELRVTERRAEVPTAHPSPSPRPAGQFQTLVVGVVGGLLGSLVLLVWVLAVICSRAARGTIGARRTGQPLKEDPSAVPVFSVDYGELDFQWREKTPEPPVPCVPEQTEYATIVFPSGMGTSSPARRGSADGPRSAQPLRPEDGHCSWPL
Sequence of Programmed cell death protein 1/Programmed cell death 1 ligand 1 (Q9NZQ7 whole entry): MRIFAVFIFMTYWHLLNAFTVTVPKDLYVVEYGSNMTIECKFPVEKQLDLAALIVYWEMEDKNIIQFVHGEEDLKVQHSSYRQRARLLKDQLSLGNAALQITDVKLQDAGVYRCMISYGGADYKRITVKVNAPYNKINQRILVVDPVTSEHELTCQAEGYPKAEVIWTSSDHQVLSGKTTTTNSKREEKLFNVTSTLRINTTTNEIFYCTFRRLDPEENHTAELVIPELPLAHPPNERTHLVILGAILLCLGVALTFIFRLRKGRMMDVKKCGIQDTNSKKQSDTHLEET

COc1nc(-c2cccc(-c3cccc(-c4cnc(CN5CC(C(C)(C)O)C5)c(OC)n4)c3Cl)c2Cl)cnc1CN
IC50: 0.346 nM
